Source: patent publication US10154983B2, “Neurodegenerative disorders and muscle diseases implicating PUFAs” (Retrotope, Inc., priority 2011, dated 2018)

How the values were obtained:
[1] = test system: coq null mutants; settings: for viability of coq null mutants: 200 μM fatty acid, plate dilution assay
Protocol: FIG. 3. […] Yeast coq3, coq7 and coq9 null mutants were prepared in the W303 yeast genetic background (WT). Yeast strains were grown in YPD medium (1% Bacto-yeast extract, 2% Bacto-peptone, 2% dextrose) and harvested while in log phase growth (OD600 nm=0.1-1.0). Cells were washed twice with sterile water and resuspended in phosphate buffer (0.10 M sodium phosphate, pH 6.2, 0.2% dextrose) to an OD600 nm=0.2. Samples were removed and 1:5 serial dilutions starting at 0.20 OD/ml were plated on YPD plate medium, to provide a zero time untreated control (shown in top left panel). The designated fatty acids were added to 200 μM final concentration to 20 ml of yeast in phosphate buffer. At 2 h, 4 h, and 16 h samples were removed, 1:5 serial dilutions prepared, and spotted onto YPD plate medium. Pictures were taken after 2 days of growth at 30° C.
FIG. 4. […] The fatty acid sensitive assay was performed as described in FIG. 3, except that 100 μl aliquots were removed at 1, 2, and 4 h and, following dilution, spread onto YPD plates. Pictures were taken after 2 to 2.5 days, and the number of colonies counted.
Q-less yeast (coq mutants) provide an ideal system to assess in vivo autoxidation of fatty acids. Coenzyme Q (ubiquinone or Q) serves as a small lipophilic antioxidant as well as an electron shuttle in the respiratory chain of the mitochondrial inner membrane. Ten S. cerevisiae genes (COQ1-COQ10) are required for coenzyme Q biosynthesis and function, and the deletion of any results in respiratory deficiency (Tran U C, Clarke C F. Mitochondrion 2007; 7S,S62).
A plate dilution assay can be used to assess PUFA sensitivity. This assay can be performed by spotting serial five-fold dilutions of aliquots onto YPD plate media (FIG. 3). The sensitivity of the different strains can be observed by visual inspection of the density of cells in each spot.

[2] = Kinetics of the oxidation of mixtures of D2-LA and LA; assay type: physicochemical; settings: data not shown
Protocol: FIG. 8. Dependence of the rate of oxidation of the mixture of LA and D2-LA in chlorobenzene solution on mixture composition. Conditions: [LA]+[11,11-d2-LA]=0.775 M; [AMVN]=0.0217 M; 37° C. RIN=(1.10±0.08)×10^−7 M/sec.
To simulate the likely in vivo conditions, the kinetics of the oxidation of the mixtures of D2-LA and LA were studied (FIG. 8). In the experiments, the concentration of LA plus 11,11-d2-LA was 0.775 M; the concentration of AMVN was 0.0217 M; and the reactions were carried out at 37° C. The results afforded an RIN of 1.10±0.08×10^−7 M/sec.

[3] = Kinetics of oxygen consumption during oxidation in chlorobenzene initiated by AMVN; assay type: physicochemical
Protocol: FIG. 7. Kinetics of O2 consumption accompanied the oxidation of 0.71 M LA (plots 1 and 2) and 0.71 M D2-LA (plot 3) in chlorobenzene initiated by 40 mM AMVN at 37° C. Plot 2—0.23 mM HPMC was added to 0.71 M LA.
The kinetics of oxygen consumption during the oxidation of LA and D2-LA was studied with a glass capillary microvolumeter (FIG. 7). The rate of oxidation, ROX, was measured as a slope of [O2] traces. The rate of initiation, RIN, was determined by the inhibitor method with HPMC (“6-hydroxy-2,2,5,7,8-pentamethylbenzochroman”) as a reference inhibitor. RIN was calculated from the induction period of inhibited oxidation, tIND: RIN=2·[HPMC]/tIND. […] When the process was inhibited by 0.23 mM chain-breaking antioxidant HPMC, the duration of the induction period, tIND, was about 48 min, with the RIN value of around 0.16×10^−6 M/s. […] The latter precludes a direct determination of RIN. […] An estimated kinetic isotope effect (“KIE”), from comparison of ROX for LA and D2-LA, was around 6.1×10^−6/0.18×10^−6≈35. A similar KIE was determined during the oxidation of LA and 11,11-d2-LA in Triton X-100 aqueous micelles (data not shown). For comparative purposes, the theoretical KIE is 6.9 at 25° C. See Carpenter, “Determination of Organic Reaction Mechanisms” (John Wiley & Sons, 1984), p. 89.

[4] = test system: Wild-type yeast; settings: 200 μM fatty acid, 4 h incubation
Protocol: Uptake of exogenously supplied fatty acids by yeast. WT (W303) yeast were harvested at log phase and incubated in the presence of 200 μM of the designated fatty acid for either 0 or 4 h.
Wild-type yeast were harvested during log phase growth and incubated in the presence of exogenously added fatty acid (for 0 or 4 h) in the presence of phosphate buffer plus 0.20% dextrose, as described for the fatty acid sensitivity assay. Cells were harvested, washed twice with 10 ml sterile water, and the yeast cell pellets were then processed by alkaline methanolysis as described above. The fatty acids are detected as methylesters (FAMEs) following GC-MS with C17:0 added as an internal standard (FIG. 6). The amounts of 18:3 and D4 detected after 4 h incubation were extrapolated from the calibration curve.

[5] = test system: wild-type (strain W303-1B) cells; settings: four hour treatment; cited from earlier work
[6] = test system: coq null mutants; settings: four hour treatment; cited from earlier work

SMILES | protection in the yeast model [1] | length of the kinetic chain v=ROX/RIN [3] | viability of coq null mutants [1] | incorporation by yeast [4] | further results
[2H]C([2H])(/C=C\CC)/C=C\CC/C=C\CCCCCCC(=O)O [14,14-D2-linolenic acid, 14,14-Dideutero-cis,cis,cis-octadeca-8,12,15-trienoic acid] | comparable protection | – | – | – | –
[2H]C([2H])(/C=C\CCCCC)/C=C\CCCCCCCC(=O)O [D2-LA, 11,11-Dideutero-cis,cis-octadeca-9,12-dienoic acid] | – | ≈ 1.1 | – | – | effect on oxidation of mixture with non-deuterated methyl linoleate [2]: qualititatively similar effect; effect of addition of HPMC [3]: did not result in the decrease in ROX and the appearance of any detectable induction period
[2H]C([2H])(/C=C\CC)/C=C\C([2H])([2H])/C=C\CCCCCCCC(=O)O [D4-linolenic acid, 11,11,14,14-Tetradeutero-cis,cis,cis-octadeca-8,12,15-trienoic acid] | – | – | not killed | avidly incorporate | viability of treated cells compared with oleic ([1]; quantitative colony counting): similar
CCCCC/C=C\C/C=C\CCCCCCCC(=O)O [LA, (9Z,12Z)-9,12-Octadecadienoic acid, reference compound] | – | 38±3 | – | – | –
CC/C=C\C/C=C\C/C=C\CCCCCCCC(=O)O [linolenic acid, (9Z,12Z,15Z)-9,12,15-Octadecatrienoic acid, reference compound] | – | – | dramatic loss of viability | avidly incorporate | wild-type cells remaining viable [5]: 70%; Q-less (coq2, coq3, and coq5) yeast mutants viable following treatment [6]: Less than 1%
[2H]C([2H])(/C=C\C/C=C\CC)C/C=C\CCCCCCC(=O)O [11,11-D2-linolenic acid, 11,11-Dideutero-cis,cis,cis-octadeca-8,12,15-trienoic acid] | comparable protection | – | – | – | –
